Where “and” joins values, the source holds several entries; their conditions need not be identical. Equal values may be shown once.
Columns and labels:
HMPV RdRp = HMPV RdRp (Human metapneumovirus, UniProt Q6WB93); format: biochemical
HRV-16 RdRp (3Dpol) = HRV-16 RdRp (3Dpol) (Human rhinovirus 16, UniProt Q82122)
HRV-16 RdRp [1] = target: T1, HRV-16 RdRp (Human rhinovirus 16, UniProt Q82122); format: biochemical
MERS-CoV RdRp complex = MERS-CoV RdRp complex (Middle East respiratory syndrome-related coronavirus, UniProt K9N7C7)
MERS-CoV RdRp = MERS-CoV RdRp (Middle East respiratory syndrome-related coronavirus, UniProt K9N7C7); format: biochemical
HRV-16 RdRp [2] = target: T1, HRV-16 RdRp; format: biochemical; remark: listed apart in the source
PIV-5 RdRp = PIV-5 RdRp (Parainfluenza virus 5, UniProt Q88434); format: biochemical
HPIV-3 RdRp = HPIV-3 RdRp (Human parainfluenza 3 virus, UniProt P12577); format: biochemical
EV-71 RdRp [3] = format: biochemical
HMPV RdRp complex = HMPV RdRp complex (Human metapneumovirus, UniProt Q6WB93)
[4] = target: human mitochondrial RNA polymerase (h-mtRNAP) (Homo sapiens, UniProt O00411); format: biochemical
human mitochondrial RNA polymerase (h-mtRNAP), sequence (O00411 42-1230 limits assumed): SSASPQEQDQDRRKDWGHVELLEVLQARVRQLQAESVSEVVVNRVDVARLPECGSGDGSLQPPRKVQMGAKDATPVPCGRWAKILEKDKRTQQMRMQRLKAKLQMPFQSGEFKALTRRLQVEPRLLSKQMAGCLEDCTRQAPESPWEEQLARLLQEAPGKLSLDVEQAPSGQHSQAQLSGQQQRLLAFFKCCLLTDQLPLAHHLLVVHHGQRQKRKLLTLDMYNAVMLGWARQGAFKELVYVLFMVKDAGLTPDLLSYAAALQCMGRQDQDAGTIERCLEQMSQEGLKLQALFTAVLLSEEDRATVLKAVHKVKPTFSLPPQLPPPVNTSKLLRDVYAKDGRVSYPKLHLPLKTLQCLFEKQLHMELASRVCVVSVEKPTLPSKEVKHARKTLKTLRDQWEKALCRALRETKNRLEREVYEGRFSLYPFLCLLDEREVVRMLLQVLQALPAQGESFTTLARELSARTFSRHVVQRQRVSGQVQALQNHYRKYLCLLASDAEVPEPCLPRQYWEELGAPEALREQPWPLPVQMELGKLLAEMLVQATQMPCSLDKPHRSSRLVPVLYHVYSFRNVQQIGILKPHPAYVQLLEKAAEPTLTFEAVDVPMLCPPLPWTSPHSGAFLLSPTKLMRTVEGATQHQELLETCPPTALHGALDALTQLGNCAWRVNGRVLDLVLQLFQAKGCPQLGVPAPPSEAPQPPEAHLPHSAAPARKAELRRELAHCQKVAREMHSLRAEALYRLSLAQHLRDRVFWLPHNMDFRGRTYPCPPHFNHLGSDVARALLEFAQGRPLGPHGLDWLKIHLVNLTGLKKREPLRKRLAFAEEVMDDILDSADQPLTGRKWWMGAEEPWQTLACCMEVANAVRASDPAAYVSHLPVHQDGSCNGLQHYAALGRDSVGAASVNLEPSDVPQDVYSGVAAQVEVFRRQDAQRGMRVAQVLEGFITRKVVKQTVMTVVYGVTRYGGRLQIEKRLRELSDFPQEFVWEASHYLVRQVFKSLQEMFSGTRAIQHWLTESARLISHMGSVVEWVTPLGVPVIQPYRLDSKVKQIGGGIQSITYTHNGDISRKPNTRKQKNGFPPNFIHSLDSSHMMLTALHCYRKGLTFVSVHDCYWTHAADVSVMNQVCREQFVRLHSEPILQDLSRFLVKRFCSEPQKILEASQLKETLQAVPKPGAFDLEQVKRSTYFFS

EV-71 RdRp (3Dpol) = EV-71 RdRp (3Dpol) (Enterovirus A71, UniProt E5RPG3)
RSV RdRp complex = RSV RdRp complex (Human respiratory syncytial virus A, UniProt P28887)
EV-71 RdRp [5] = format: biochemical; remark: listed apart in the source
EV-71 RdRp [6] = format: biochemical; remark: listed apart in the source
RSV RdRp = RSV RdRp (Human respiratory syncytial virus A, UniProt P28887); format: biochemical
SARS-CoV-2 RdRp complex = SARS-CoV-2 RdRp complex (Severe acute respiratory syndrome coronavirus 2, UniProt P0DTD1)
HRV-16 RdRp [7] = target: T1, HRV-16 RdRp; format: biochemical; remark: listed apart in the source
PIV-5 RdRp complex = PIV-5 RdRp complex (Parainfluenza virus 5, UniProt Q88434)
SARS-CoV-2 RdRp = SARS-CoV-2 RdRp (Severe acute respiratory syndrome coronavirus 2, UniProt P0DTD1); format: biochemical

N#C[C@]1(COP(=O)(O)OP(=O)(O)OP(=O)(O)O)O[C@@H](c2ccc3c(N)ncnn23)[C@H](O)[C@@H]1O [GS-646939]
Pattern of inhibition of RNA primer extension after incorporation at position i (HMPV RdRp): immediate chain termination
Vmax (product fraction) of UTP incorporation at i + 1 (HMPV RdRp): 0.087 ± 0.030
Incorporated more efficiently than natural ATP counterpart (HRV-16 RdRp (3Dpol)): 20-50 fold
Inhibition (fold) vs Template A (HRV-16 RdRp [1]): ~2 fold and 2.0 fold
UTP (HRV-16 RdRp [1]): 1.0 µM
Selectivity (fold), Vmax/Km ATP over Vmax/Km analog (MERS-CoV RdRp complex): 1.17 fold
Vmax (product fraction) of UTP incorporation at i + 1 (MERS-CoV RdRp): 0.91 ± 0.10
CI average (CIavg) ± standard deviation (HRV-16 RdRp [2]): 0.04
Preference for GS-646939 over GS-443902 under competitive conditions (HRV-16 RdRp [2]): greater than 30 fold
Pattern of inhibition of RNA primer extension after incorporation at position i (PIV-5 RdRp): immediate chain termination
Vmax (product fraction) of UTP incorporation at i + 1 (PIV-5 RdRp): 0.058 ± 0.080
Pattern of inhibition of RNA primer extension after incorporation at position i (HPIV-3 RdRp): immediate chain termination
Vmax (product fraction) of UTP incorporation at i + 1 (HPIV-3 RdRp): 0.61 ± 0.0099
Pattern of inhibition of RNA primer extension after incorporation at position i (EV-71 RdRp [3]): immediate chain-termination
Vmax (product fraction) of UTP incorporation at i + 1 (EV-71 RdRp [3]): 0.81 ± 0.017
Selectivity (fold), Vmax/Km ATP over Vmax/Km analog (HMPV RdRp complex): 1.73 fold
Selectivity (fold), Vmax/Km ATP over Vmax/Km analog [4]: 1538 fold
Incorporated more efficiently than natural ATP counterpart (EV-71 RdRp (3Dpol)): 20-50 fold
Selectivity (fold), Vmax/Km ATP over Vmax/Km analog (RSV RdRp complex): 1.58 fold
CI average (CIavg) ± standard deviation (EV-71 RdRp [5]): 0.07
Preference for GS-646939 over GS-443902 under competitive conditions (EV-71 RdRp [5]): greater than 30 fold
Inhibition (fold) of UTP incorporation across embedded analog (EV-71 RdRp [6]): ~9 fold
Pattern of inhibition of RNA primer extension after incorporation at position i (RSV RdRp): immediate chain termination
Vmax (product fraction) of UTP incorporation at i + 1 (RSV RdRp): 0.15 ± 0.0029
Selectivity (fold), Vmax/Km ATP over Vmax/Km analog (SARS-CoV-2 RdRp complex): 1.37 fold
Pattern of inhibition of RNA primer extension after incorporation at position i (HRV-16 RdRp [7]): immediate chain-termination
Vmax (product fraction) of UTP incorporation at i + 1 (HRV-16 RdRp [7]): 0.83 ± 0.012
Selectivity (fold), Vmax/Km ATP over Vmax/Km analog (PIV-5 RdRp complex): 5.05 fold
Vmax (product fraction) of UTP incorporation at i + 1 (SARS-CoV-2 RdRp): 0.79 ± 0.036
